Assay results published in patent US20200223837A1, “BENZOFURAN AMIDES AND HETEROAROMATIC ANALOGUES THEREOF FOR USE IN THERAPY” (European Molecular Biology Laboratory, priority 2017, published 2020).

System: EGR1 promoter
Assay: EGR1 reporter assay (luciferase) in genomically engineered HeLa cell line
Format: cell-based
Settings: Homo sapiens; EGR1 reporter HeLa cells, luciferase activity after 24 hours with compound
Excerpt: The compounds of the present invention can be characterized for their effect on expression of egr1 (early growth response protein 1) using an EGR1 reporter cell line.
The HeLa cell line was genetically modified to provide a simple, robust and highly reproducible cell-based assay reporting the activity of an endogenous EGR1 promoter. In brief, a construct encoding EGFP and luciferase proteins, separated by a self-cleaving P2A peptide was inserted, using CRISPR, immediately downstream (3′) to the promoter of endogenous EGR1. Upon treatment with compounds, cells express EGFP and luciferase from EGR1 promoter, which can be readily detected either in live cells using microscopy or cytometry, or through detection of luciferase activity in cell lysates.
To achieve stable genomic integration of an EGR1-promoter dual reporter, two plasmids were generated: one contained the reporter construct (eGFP-P2A-luciferase) flanked by homology arms that direct insertion into genomic DNA, by homologous recombination, of a break in genomic DNA generated by guide RNA targeted cleavage by Cas9 endonuclease. The gRNA expressing plasmid was based on px330 (56), into which a gRNA sequence that targets a break in gDNA close to the start codon of EGR1 was cloned. The left homology arm (encoding part of EGR1 promoter adjacent to its start codon) and right homology arm (encoding […] of start codon of EGR1) were cloned from gDNA using the following primers: […]
The present compounds can be tested, e.g. by using a HeLa cell line carrying an EGR1 reporter construct which allows for expression of luciferase and eGFP (enhanced GFP) controlled by the EGR1 promoter. For this reporter cells are seeded in the wells of a 384 well microtiter plate at a density of 2000 cells per well in 48 μl of DMEM supplemented with 4.5 g/l glucose, 2 mM glutamine and 10% FCS and are incubated for 24 hours at 37° C. with 5% CO2 and 95% humidity. Then, an eleven point 1:3 serial dilution of each test compound, from an initial concentration of 100 μM, is prepared in DMSO and the dilutions are added to the cells in a volume of 2 μl per well. The cells are incubated for a further 24 hours, after which the luciferase activity of each well is determined by addition of 25 μl of luciferase substrate reaction mixture (Britelite™ plus, Perkin Elmer) and measuring the bioluminescence light output (EnVision Xcite plate reader, PerkinElmer).
The compound of example 64 served as a positive control for this EGR1 reporter assay. The compound of example 64 had been identified in an initial high throughput screening campaign.

| SMILES | EC50 [µM] |
| --- | --- |
| COc1ccc2c(CC(=O)Nc3nc(-c4ccc(C5CCCCC5)cc4)cs3)coc2c1 [Example 76, N-[4-(4-Cyclohexylphenyl)thiazol-2-yl]-2-(6-methoxybenzofuran-3-yl)acetamide] | 0.01 to 10 |
| Cc1cc2occ(CC(=O)Nc3nc(-c4ccccn4)cs3)c2cc1C [Example 9, 2-(5,6-Dimethylbenzofuran-3-yl)-N-[4-(2-pyridyl)thiazol-2-yl]acetamide] | 10 to 100 |
| COc1ccc2c(CC(=O)Nc3nc(-c4ccc5c(c4)CCC(=O)N5)cs3)coc2c1 [Example 29, 2-(6-Methoxybenzofuran-3-yl)-N-[4-(2-oxo-3,4-dihydro-1H-quinolin-6-yl)thiazol-2-yl]acetamide] | 0.01 to 10 |
| Cc1ccc2c(CC(=O)Nc3nccs3)coc2c1 [Example 42, 2-(6-Methylbenzofuran-3-yl)-N-thiazol-2-yl-acetamide] | 0.01 to 10 |
| Cc1cnc(NC(=O)Cc2coc3c(Cl)c(C)ccc23)s1 [Example 90, 2-(7-Chloro-6-methyl-benzofuran-3-yl)-N-(5-methylthiazol-2-yl)acetamide] | 0.01 to 10 |
| O=C(Cc1coc2cc3c(cc12)CCC3)Nc1ncc(C(F)(F)F)s1 [Example 63, 2-(6,7-Dihydro-5H-cyclopenta[f]benzofuran-3-yl)-N-[5-(trifluoromethyl)thiazol-2-yl]acetamide] | 0.01 to 10 |
| Cc1ccc2c(CC(=O)Nc3ncc(C(F)(F)F)s3)coc2c1C [Example 99, 2-(6,7-Dimethylbenzofuran-3-yl)-N-[5-(trifluoromethyl)thiazol-2-yl]acetamide] | 0.01 to 10 |
| Cc1ccc2c(CC(=O)Nc3ncc(C(F)(F)F)[nH]3)coc2c1C [Example 55, 2-(6,7-Dimethylbenzofuran-3-yl)-N-[5-(trifluoromethyl)-1H-imidazol-2-yl]acetamide] | 0.01 to 10 |
| COc1ccc(-c2csc(NC(=O)Cc3coc4cc(OC)ccc34)n2)cc1 [Example 71, 2-(6-Methoxybenzofuran-3-yl)-N-[4-(4-methoxyphenyl)thiazol-2-yl]acetamide] | 0.01 to 10 |
| COCc1cnc(NC(=O)Cc2coc3c(Cl)c(C)ccc23)s1 [Example 89, 2-(7-Chloro-6-methyl-benzofuran-3-yl)-N-[5-(methoxymethyl)thiazol-2-yl]acetamide] | 0.01 to 10 |
| COc1ccc2c(CC(=O)Nc3nc(-c4ccc(CCC(C)NC(C)=O)cc4)cs3)coc2c1 (centres unmarked) [Example 51, N-[4-[4-(3-Acetamidobutyl)phenyl]thiazol-2-yl]-2-(6-methoxybenzofuran-3-yl)acetamide] | 0.01 to 10 |
| CC(=O)c1csc(NC(=O)Cc2coc3cc(C)ccc23)n1 [Example 24, N-(4-Acetylthiazol-2-yl)-2-(6-methylbenzofuran-3-yl)acetamide] | 0.01 to 10 |
| COCc1cnc(NC(=O)Cc2coc3cc4c(cc23)CCC4)s1 [Example 65, 2-(6,7-Dihydro-5H-cyclopenta[f]benzofuran-3-yl)-N-[5-(methoxymethyl)thiazol-2-yl]acetamide] | 0.01 to 10 |
| Cc1ccc2c(CC(=O)Nc3nc(-c4ccc(C)o4)cs3)coc2c1 [Example 36, 2-(6-Methylbenzofuran-3-yl)-N-[4-(5-methyl-2-furyl)thiazol-2-yl]acetamide] | 0.01 to 10 |
| COCc1cnc(NC(=O)Cc2coc3c(Cl)c(Cl)ccc23)s1 [Example 93, 2-(6,7-Dichlorobenzofuran-3-yl)-N-[5-(methoxymethyl)thiazol-2-yl]acetamide] | 0.01 to 10 |
| CCc1ccc2c(CC(=O)Nc3nc(C)cs3)coc2c1 [Example 35, 2-(6-Ethylbenzofuran-3-yl)-N-(4-methylthiazol-2-yl)acetamide] | 0.01 to 10 |
| O=C(Cc1coc2c(Cl)c(Cl)ccc12)Nc1ncc(C(F)(F)F)[nH]1 [Example 49, 2-(6,7-Dichlorobenzofuran-3-yl)-N-[5-(trifluoromethyl)-1H-imidazol-2-yl]acetamide] | 0.01 to 10 |
| CCc1ccc2c(CC(=O)Nc3nc(-c4ccc(CNC(C)=O)cc4)cs3)coc2c1 [Example 30, N-[4-[4-(Acetamidomethyl)phenyl]thiazol-2-yl]-2-(6-ethylbenzofuran-3-yl)acetamide] | 0.01 to 10 |
| CC(C(=O)Nc1ncc(C(F)(F)F)s1)c1coc2cc(Cl)ccc12 (centres unmarked) [Example 66, 2-(6-Chlorobenzofuran-3-yl)-N-[5-(trifluoromethyl)thiazol-2-yl]propanamide] | 0.01 to 10 |

| SMILES | EC50 [µM] |
| --- | --- |
| COc1ccc2c(CC(=O)Nc3nc(-c4ccc5c(c4)CCO5)cs3)coc2c1 [Example 74, N-[4-(2,3-Dihydrobenzofuran-5-yl)thiazol-2-yl]-2-(6-methoxybenzofuran-3-yl)acetamide] | 0.01 to 10 |
| Cc1cc2occ(CC(=O)N(c3ccc(SC(F)F)cc3)c3nc4ccccc4s3)c2cc1C(C)C [Example 81, N-(1,3-Benzothiazol-2-yl)-N-[4-(difluoromethylsulfanyl)phenyl]-2-(5-isopropyl-6-methyl-benzofuran-3-yl)acetamide] | 0.01 to 10 |
| O=C(Cc1coc2ccccc12)Nc1ncc(C(F)(F)F)s1 [Example 6, 2-(Benzofuran-3-yl)-N-[5-(trifluoromethyl)thiazol-2-yl]acetamide] | 10 to 100 |
| Cc1ccc2occ(CC(=O)Nc3ncc(C(F)(F)F)s3)c2c1 [Example 4, 2-(5-Methylbenzofuran-3-yl)-N-[5-(trifluoromethyl)thiazol-2-yl]acetamide] | 10 to 100 |
| Cn1ccc(NC(=O)Cc2coc3cc4c(cc23)CCC4)n1 [Example 3, 2-(6,7-Dihydro-5H-cyclopenta[f]benzofuran-3-yl)-N-(1-methylpyrazol-3-yl)acetamide] | 10 to 100 |
| COc1ccc2c(CC(=O)N(c3ccc(SC(F)F)cc3)c3nc4ccccc4s3)coc2c1 [Example 77, N-(1,3-Benzothiazol-2-yl)-N-[4-(difluoromethylsulfanyl)phenyl]-2-(6-methoxybenzofuran-3-yl)acetamide] | 0.01 to 10 |
| Cc1cnc(NC(=O)Cc2coc3cc4c(cc23)OCO4)s1 [Example 34, 2-Furo[3,2-f][1,3]benzodioxol-7-yl-N-(5-methylthiazol-2-yl)acetamide] | 0.01 to 10 |
| C=CCN(C(=O)Cc1coc2cc(C)ccc12)c1nc(-c2ccc(S(C)(=O)=O)cc2)cs1 [Example 70, N-Allyl-2-(6-methylbenzofuran-3-yl)-N-[4-(4-methylsulfonylphenyl)thiazol-2-yl]acetamide] | 0.01 to 10 |
| CCc1ccc2c(CC(=O)Nc3ncc(C)s3)coc2c1 [Example 40, 2-(6-Ethylbenzofuran-3-yl)-N-(5-methylthiazol-2-yl)acetamide] | 0.01 to 10 |
| Cc1cnc(NC(=O)Cc2coc3c(C)c(C)ccc23)s1 [Example 88, 2-(6,7-Dimethylbenzofuran-3-yl)-N-(5-methylthiazol-2-yl)acetamide] | 0.01 to 10 |
| Cc1cnc(NC(=O)Cc2coc3c(C)cccc23)s1 [Example 10, 2-(7-Methylbenzofuran-3-yl)-N-(5-methylthiazol-2-yl)acetamide] | 10 to 100 |
| O=C(Cc1coc2c(F)c(F)ccc12)Nc1ncc(C(F)(F)F)s1 [Example 39, 2-(6,7-Difluorobenzofuran-3-yl)-N-[5-(trifluoromethyl)thiazol-2-yl]acetamide] | 0.01 to 10 |
| O=C(Cc1coc2cc3c(cc12)CCC3)NCCNc1ncc(CO)s1 [Example 80, 2-(6,7-Dihydro-5H-cyclopenta[f]benzofuran-3-yl)-N-[2-[[5-(hydroxymethyl)thiazol-2-yl]amino]ethyl]acetamide] | 0.01 to 10 |
| Cc1ccc2c(CC(=O)Nc3nc(-c4ccncc4)cs3)coc2c1 [Example 31, 2-(6-Methylbenzofuran-3-yl)-N-[4-(4-pyridyl)thiazol-2-yl]acetamide] | 0.01 to 10 |
| Cc1cnc(NC(=O)Cc2coc3c(C)c(Cl)ccc23)s1 [Example 92, 2-(6-Chloro-7-methyl-benzofuran-3-yl)-N-(5-methylthiazol-2-yl)acetamide] | 0.01 to 10 |
| COCc1cnc(NC(=O)Cc2coc3cc(Cl)ccc23)s1 [Example 56] | 0.01 to 10 |
| Cc1c(Cl)ccc2c(CC(=O)Nc3ncc(C(F)(F)F)s3)coc12 [Example 94, 2-(6-Chloro-7-methyl-benzofuran-3-yl)-N-[5-(trifluoromethyl)thiazol-2-yl]acetamide] | 0.01 to 10 |
| Cc1ccc2c(CC(=O)Nc3ncc(C)s3)coc2c1 [Example 48, 2-(6-Methylbenzofuran-3-yl)-N-(5-methylthiazol-2-yl)acetamide] | 0.01 to 10 |
| Cc1cnc(NC(=O)Cc2coc3ncccc23)s1 [Example 104, 2-(Furo[2,3-b]pyridin-3-yl)-N-(5-methylthiazol-2-yl)acetamide] | 10 to 100 |
